Results as given in the supplement of paper PMC10307832.

Experiments:
Assay in all cases: relative viability (nuclei count vs DMSO), 5 days (fraction); higher = more cells survive
[1] = compound: CCC1=CN=CN=C1N2CCN(CC2)CC3=NC4=C(N3)C=C(C=C4)C(F)(F)F + C[C@@H](Oc1cc(-c2cnn(C3CCNCC3)c2)cnc1N)c1c(Cl)ccc(F)c1Cl [Crizotinib] (partner 1 µM)
Procedure, shortened: (§1)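 Values are medians from duplicate plates. Each reflects relative viability, defined as the nuclei count of treated wells over that of vehicle wells. Lung cancer cell lines in 1536-well plates were pin-tool dosed one day after seeding with one drug alone or with a fixed anchor-drug dose plus five library-drug doses (not always all listed) in √10 steps, then fixed, stained and imaged at 4× after 5 days.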

[2] = compound: CCC1=CN=CN=C1N2CCN(CC2)CC3=NC4=C(N3)C=C(C=C4)C(F)(F)F + C[C@]1(O)C[C@@H](c2nc(-c3ccc4ccc(-c5ccccc5)nc4c3)c3c(N)nccn32)C1 [Linsitinib] (partner 1 µM)
Procedure, shortened: as §1

[3] = compound: CCC1=CN=CN=C1N2CCN(CC2)CC3=NC4=C(N3)C=C(C=C4)C(F)(F)F + Cc1nc(NC(=O)N2CCC[C@H]2C(N)=O)sc1-c1ccnc(C(C)(C)C(F)(F)F)c1 [Alpelisib] (partner 2 µM)
Procedure, shortened: as §1

[4] = compound: CCC1=CN=CN=C1N2CCN(CC2)CC3=NC4=C(N3)C=C(C=C4)C(F)(F)F + O=C(c1cc(Cc2n[nH]c(=O)c3ccccc23)ccc1F)N1CCN(C(=O)C2CC2)CC1 [Olaparib] (partner 8 µM)
Procedure, shortened: as §1

| Cell Line | relative viability ([1]; first compound 0.04 µM) | relative viability ([1]; first compound 0.1265 µM) | relative viability ([1]; first compound 0.4 µM) | relative viability ([1]; first compound 1.265 µM) | relative viability ([1]; first compound 4 µM) | relative viability ([2]; first compound 0.04 µM) | relative viability ([2]; first compound 0.1265 µM) | relative viability ([2]; first compound 0.4 µM) | relative viability ([2]; first compound 1.265 µM) | relative viability ([2]; first compound 4 µM) | relative viability ([3]; first compound 0.04 µM) | relative viability ([3]; first compound 0.1265 µM) | relative viability ([3]; first compound 0.4 µM) | relative viability ([3]; first compound 1.265 µM) | relative viability ([3]; first compound 4 µM) | relative viability ([4]; first compound 0.04 µM) | relative viability ([4]; first compound 0.1265 µM) | relative viability ([4]; first compound 0.4 µM) | relative viability ([4]; first compound 1.265 µM) | relative viability ([4]; first compound 4 µM) |
| --- | --- | --- | --- | --- | --- | --- | --- | --- | --- | --- | --- | --- | --- | --- | --- | --- | --- | --- | --- | --- |
| LU99A | 0.543 | 0.53 | 0.541 | 1 | 1.09 | 0.514 | 0.563 | 0.581 | 0.525 | 0.562 | 0.524 | 0.527 | 0.53 | 0.568 | 0.585 | 0.308 | 0.282 | 0.276 | 0.28 | 0.301 |
| LXF-289 | 0.823 | 0.754 | 0.825 | 0.781 | 0.87 | 0.983 | 0.957 | 0.983 | 0.976 | 0.954 | 1.01 | 1.01 | 0.972 | 0.996 | 0.974 | 1.08 | 1.01 | 1.05 | 1.02 | 0.933 |
| NCI-H23 | 0.591 | 0.559 | 0.574 | 0.689 | 0.989 | 0.681 | 0.689 | 0.59 | 0.623 | 0.638 | 0.807 | 0.652 | 0.706 | 0.599 | 0.781 | 0.353 | 0.4 | 0.29 | 0.345 | 0.243 |
| NCI-H322M | 0.956 | 0.868 | 0.918 | 0.896 | 1.37 | 0.979 | 0.801 | 0.911 | 0.909 | 1.02 | 0.741 | 0.892 | 0.749 | 0.705 | 0.748 | 0.792 | 0.811 | 0.725 | 0.672 | 0.85 |
| NCI-H358 | 0.581 | 0.73 | 0.92 | 1.15 | 1.68 | 0.809 | 0.656 | 0.656 | 0.657 | 0.607 | 0.892 | 0.836 | 0.833 | 0.853 | 0.747 | 0.659 | 0.607 | 0.542 | 0.62 | 0.548 |
| NCI-H441 | 0.742 | 0.627 | 0.789 | 0.859 | 1.04 | 0.526 | 0.553 | 0.444 | 0.489 | 0.497 | 0.662 | 0.629 | 0.762 | 0.753 | 0.612 | 0.459 | 0.543 | 0.543 | 0.458 | 0.529 |
| NCI-H460 | 1.06 | 1.03 | 0.886 | 0.832 | 1.14 | 0.891 | 0.683 | 0.828 | 0.716 | 0.718 | 0.445 | 0.559 | 0.385 | 0.398 | 0.583 | 0.521 | 0.423 | 0.404 | 0.368 | 0.399 |
| NCI-H520 | 0.73 | 0.784 | 0.837 | 0.796 | 1.12 | 0.908 | 0.93 | 0.886 | 0.773 | 0.861 | 1.08 | 0.883 | 0.838 | 0.765 | 1.01 | 0.291 | 0.415 | 0.349 | 0.333 | 0.298 |
